Reference: patent publication US12257224B2, “Methods of administration for highly water-soluble salts of a short acting phenylalkylamine calcium channel blocker” (Milestone Pharmaceuticals Inc., priority 2021, dated 2025)
Where two headings read alike, the source gives them in different places.

Assay: Example 7: PK analysis, serum concentration after one vs two 70 mg nasal doses
Type: in vivo, human
Set-up: serum concentration, Median: unit not given here
Details: for concentration at 13 min / concentration at 15 min: human, serum, other: nasal
Experimental: The serum concentration of compound I over time from the first administration for the study arm with a single 70 mg dose administration of compound I was compared with the study arm with two 70 mg dose administrations of compound I. The second 70 mg dose of compound I was administered approximately 10 minutes after the first dose.

[1] = one 70 mg nasal dose, Time 10.5
[2] = one 70 mg nasal dose, Time 11.5
[3] = one 70 mg nasal dose, Time 1450
[4] = two 70 mg nasal doses, second approximately 10 minutes after first, Time 7
[5] = two 70 mg nasal doses, second approximately 10 minutes after first, Time 9
[6] = two 70 mg nasal doses, second approximately 10 minutes after first, Time 10.5
[7] = two 70 mg nasal doses, second approximately 10 minutes after first, Time 11.5

COC(=O)c1cccc(CCN(C)CCCC(C#N)(c2ccc(OC)c(OC)c2)C(C)C)c1 (stereo not shown) [compound I, methyl 3-(2-((4-cyano-4-(3,4-dimethoxyphenyl)-5-methylhexyl)(methyl)amino)ethyl)benzoate]
concentration at 13 min (two 70 mg nasal doses, second approximately 10 minutes after first, Time 13, read-out: serum concentration, Max): 320 ng/mL | concentration at 13 min (two 70 mg nasal doses, second approximately 10 minutes after first, Time 13, read-out: serum concentration, Mean): 115 ng/mL | concentration at 13 min (two 70 mg nasal doses, second approximately 10 minutes after first, Time 13, read-out: serum concentration, Median): 93.6 ng/mL | concentration at 13 min (two 70 mg nasal doses, second approximately 10 minutes after first, Time 13, read-out: serum concentration, Min): 22.5 ng/mL | concentration at 15 min (two 70 mg nasal doses, second approximately 10 minutes after first, Time 15, read-out: serum concentration, Max): 317 ng/mL | concentration at 15 min (two 70 mg nasal doses, second approximately 10 minutes after first, Time 15, read-out: serum concentration, Mean): 110 ng/mL | concentration at 15 min (two 70 mg nasal doses, second approximately 10 minutes after first, Time 15, read-out: serum concentration, Median): 76.9 ng/mL | concentration at 15 min (two 70 mg nasal doses, second approximately 10 minutes after first, Time 15, read-out: serum concentration, Min): 25.2 ng/mL | serum concentration, Max (one 70 mg nasal dose, Time 0): 0 ng/mL | serum concentration, Mean (one 70 mg nasal dose, Time 0): 0.00 | serum concentration, Median (one 70 mg nasal dose, Time 0): 0.00 | serum concentration, Min (one 70 mg nasal dose, Time 0): 0.00 | serum concentration, Max (one 70 mg nasal dose, Time 0.5): 0 ng/mL | serum concentration, Mean (one 70 mg nasal dose, Time 0.5): 0.00 | serum concentration, Median (one 70 mg nasal dose, Time 0.5): 0.00 | serum concentration, Min (one 70 mg nasal dose, Time 0.5): 0.00 | serum concentration, Mean (one 70 mg nasal dose, Time 1.5): 11.79 | serum concentration, Median (one 70 mg nasal dose, Time 1.5): 5.20 | serum concentration, Min (one 70 mg nasal dose, Time 1.5): 0.00 | serum concentration, Max (one 70 mg nasal dose, Time 1.5, in ng/mL): 56.12 | serum concentration, Mean (one 70 mg nasal dose, Time 3): 62.82 | serum concentration, Median (one 70 mg nasal dose, Time 3): 32.60 | serum concentration, Min (one 70 mg nasal dose, Time 3): 11.45 | serum concentration, Max (one 70 mg nasal dose, Time 3, in ng/mL): 205.27 | serum concentration, Mean (one 70 mg nasal dose, Time 5): 90.64 | serum concentration, Median (one 70 mg nasal dose, Time 5): 67.70 | serum concentration, Min (one 70 mg nasal dose, Time 5): 21.18 | serum concentration, Max (one 70 mg nasal dose, Time 5, in ng/mL): 191.63 | serum concentration, Mean (one 70 mg nasal dose, Time 7): 83.04 | serum concentration, Median (one 70 mg nasal dose, Time 7): 74.22 | serum concentration, Min (one 70 mg nasal dose, Time 7): 28.61 | serum concentration, Max (one 70 mg nasal dose, Time 7, in ng/mL): 152.59 | serum concentration, Mean (one 70 mg nasal dose, Time 9): 73.39 | serum concentration, Median (one 70 mg nasal dose, Time 9): 69.68 | serum concentration, Min (one 70 mg nasal dose, Time 9): 25.94 | serum concentration, Max (one 70 mg nasal dose, Time 9, in ng/mL): 130.50 | serum concentration, Mean [1]: 67.95 | serum concentration, Median [1]: 59.91 | serum concentration, Min [1]: 30.24 | serum concentration, Max (one 70 mg nasal dose, Time 10.5, in ng/mL): 121.45 | serum concentration, Mean [2]: 66.91 | serum concentration, Median [2]: 59.09 | serum concentration, Min [2]: 31.61 | serum concentration, Max (one 70 mg nasal dose, Time 11.5, in ng/mL): 119.67 | serum concentration, Mean (one 70 mg nasal dose, Time 13): 62.34 | serum concentration, Median (one 70 mg nasal dose, Time 13): 59.07 | serum concentration, Min (one 70 mg nasal dose, Time 13): 29.29 | serum concentration, Max (one 70 mg nasal dose, Time 13, in ng/mL): 103.40 | serum concentration, Mean (one 70 mg nasal dose, Time 15): 57.44 | serum concentration, Median (one 70 mg nasal dose, Time 15): 52.11 | serum concentration, Min (one 70 mg nasal dose, Time 15): 26.98 | serum concentration, Max (one 70 mg nasal dose, Time 15, in ng/mL): 111.44 | serum concentration, Mean (one 70 mg nasal dose, Time 17): 50.32 | serum concentration, Median (one 70 mg nasal dose, Time 17): 41.80 | serum concentration, Min (one 70 mg nasal dose, Time 17): 26.92 | serum concentration, Max (one 70 mg nasal dose, Time 17, in ng/mL): 90.05 | serum concentration, Mean (one 70 mg nasal dose, Time 20): 49.43 | serum concentration, Median (one 70 mg nasal dose, Time 20): 46.51 | serum concentration, Min (one 70 mg nasal dose, Time 20): 22.74 | serum concentration, Max (one 70 mg nasal dose, Time 20, in ng/mL): 80.55 | serum concentration, Mean (one 70 mg nasal dose, Time 25): 41.86 | serum concentration, Median (one 70 mg nasal dose, Time 25): 42.30 | serum concentration, Min (one 70 mg nasal dose, Time 25): 19.26 | serum concentration, Max (one 70 mg nasal dose, Time 25, in ng/mL): 66.12 | serum concentration, Mean (one 70 mg nasal dose, Time 35): 33.35 | serum concentration, Median (one 70 mg nasal dose, Time 35): 36.90 | serum concentration, Min (one 70 mg nasal dose, Time 35): 15.09 | serum concentration, Max (one 70 mg nasal dose, Time 35, in ng/mL): 51.52 | serum concentration, Mean (one 70 mg nasal dose, Time 60): 20.41 | serum concentration, Median (one 70 mg nasal dose, Time 60): 22.06 | serum concentration, Min (one 70 mg nasal dose, Time 60): 8.89 | serum concentration, Max (one 70 mg nasal dose, Time 60, in ng/mL): 31.10 | serum concentration, Mean (one 70 mg nasal dose, Time 100): 13.91 | serum concentration, Median (one 70 mg nasal dose, Time 100): 12.75 | serum concentration, Min (one 70 mg nasal dose, Time 100): 6.20 | serum concentration, Max (one 70 mg nasal dose, Time 100, in ng/mL): 23.24 | serum concentration, Mean (one 70 mg nasal dose, Time 240): 5.90 | serum concentration, Median (one 70 mg nasal dose, Time 240): 5.91 | serum concentration, Min (one 70 mg nasal dose, Time 240): 1.48 | serum concentration, Max (one 70 mg nasal dose, Time 240, in ng/mL): 11.01 | serum concentration, Max (one 70 mg nasal dose, Time 370): 6.08 ng/mL | serum concentration, Mean (one 70 mg nasal dose, Time 370): 2.49 | serum concentration, Median (one 70 mg nasal dose, Time 370): 2.51 | serum concentration, Min (one 70 mg nasal dose, Time 370): 0.00 | serum concentration, Max (one 70 mg nasal dose, Time 730): 3.17 ng/mL | serum concentration, Mean (one 70 mg nasal dose, Time 730): 0.76 | serum concentration, Median (one 70 mg nasal dose, Time 730): 0.00 | serum concentration, Min (one 70 mg nasal dose, Time 730): 0.00 | serum concentration, Max [3]: 1.2 ng/mL | serum concentration, Mean [3]: 0.10 | serum concentration, Median [3]: 0.00 | serum concentration, Min [3]: 0.00 | serum concentration, two 70 mg doses vs single 70 mg dose (second dose approximately 10 minutes after the first): raised the serum concentration of compound I above that observed with a single 70 mg dose | serum concentration, Mean [4]: 85.77 | serum concentration, Median [4]: 91.42 | serum concentration, Min [4]: 17.16 | serum concentration, Max (two 70 mg nasal doses, second approximately 10 minutes after first, Time 7, in ng/mL): 180.76 | serum concentration, Mean [5]: 73.20 | serum concentration, Median [5]: 77.41 | serum concentration, Min [5]: 15.37 | serum concentration, Max (two 70 mg nasal doses, second approximately 10 minutes after first, Time 9, in ng/mL): 144.91 | serum concentration, Mean [6]: 65.97 | serum concentration, Median [6]: 65.18 | serum concentration, Min [6]: 14.49 | serum concentration, Max (two 70 mg nasal doses, second approximately 10 minutes after first, Time 10.5, in ng/mL): 143.87 | serum concentration, Mean [7]: 96.77 | serum concentration, Median [7]: 102.11 | serum concentration, Min [7]: 15.52 | serum concentration, Max (two 70 mg nasal doses, second approximately 10 minutes after first, Time 11.5, in ng/mL): 215.35
